Source: patent publication US20220304945A1, “METHODS OF TREATING METABOLIC SYNDROME RELATED CONDITIONS USING RETINOIC ACID RECEPTOR AGONISTS” (Cornell University, priority 2014, published 2022)
“Also recorded” adds a separate entry of the source.

Tests used:
Assay type in all cases: in vivo, mouse
[1] = tested on: α-SMA; assay: α-SMA immunofluorescence of kidney, HF-fed mice; conditions: HF diet mice 4 months
Description: (§1) Mice, diet, and drug treatment. WT male C57/BL6 male mice were maintained on either a standard laboratory chow-fed diet (CFD) with 13% kcal fat, (diet #5053, Lab Diet, Inc, St. Louis, Mo.) or a high fat, western style diet (HFD) with 60% kcals from fat, (diet #58126, Lab Diet, Inc., St. Louis, Mo.) for 4 months. One month after the start of the high fat diet treatment, the high fat diet group was further split into 2 groups for 3 months: i) high fat diet and the drinking water containing 1% DMSO; ii) high fat diet and the drinking water containing 1.5 mg/100 ml AC261066, a specific RARβ agonist. Then mice were sacrificed by cervical dislocation. Blood and various tissue samples were harvested.
Combined oil red O and Immunofluorescence staining. Fresh mouse kidney samples were embedded in optimal cutting temperature (OCT) medium and immediately frozen to −70 centigrade. Cryosections were then fixed in 4% formaldehyde for 1 hr at room temp. Slides were then rinsed three times in deionized water (dH2O) for 30 s, followed by treatment with 0.5% Triton X-100 in PBS for 5 min. Sections were then washed three times with PBS for 5 min. Samples were with incubated 2% bovine serum albumin (BSA) for 30 min at room temperature to block for unspecific antibody binding. […]

[2] = tested on: 4-HNE, oxidative stress in the kidneys; assay: 4-HNE staining of kidney, HF-fed mice; conditions: HF diet mice; vs high fat diet group
Description: as §1
(§2) 4-hydroxynonenal (4-HNE) staining. Paraffin-embedded sections (from two to four mice per group) were deparaffinized and rehydrated, and antigen retrieval was performed using an antigen unmasking solution (Vector Laboratories, H-3300). After quenching endogenous peroxidase with 3% H2O2, the tissue sections were blocked with the blocking reagent (from the M.O.M. kit from Vector Laboratories). Then, tissue sections were incubated with a 4-HNE antibody (1:400; mouse monoclonal antibody; Abcam, ab48506) overnight at 4° C. The sections were then incubated with secondary antibodies (1:200, anti-mouse IgG from the M.O.M kit). […]

[3] = Serum triglyceride level measurement (bichromatic assay), Example 8; conditions: HF diet mice (Example 8); vs control diet
Description: as §1
Serum triglyceride level measurement. The analysis of serum triglyceride levels was carried out using a bichromatic assay at the Laboratory of Comparative Pathology of the Memorial Sloan-Kettering Cancer Center. Chow-fed diet (CFD) n=2; high fat diet (HFD) n=3; high fat diet+AC261066 (HFDAC) n=5.

[4] = tested on: renal stellate cells (RSCs); assay: Double immunofluorescence (vimentin, α-SMA) of renal stellate cells in Db/Db mice; conditions: Db/Db mice treated for 4 weeks
Description: Retinoic Acid Receptor β (RARβ) Agonists Diminish The Activation of Fibrogenic Kidney Stellate Cells. Given that we observed a significant decrease in mRNA transcripts of α-SMA we measured kidney protein expression of α-SMA in fibrogenic renal stellate cells Renal stellate cells (RSCs) are resident kidney fibroblasts, which in response to inflammation undergo differentiation to “activated” myofibroblasts that secrete contractile proteins such as α-SMA. […] RSCs express the mesenchymal protein marker vimentin. We used double immunofluorescence to label RSCs and determine the percentage of activated RSCs expressing the fibrogenic protein α-SMA. Using Db/Db mice, which spontaneously diabetes and DN in a similar manner to humans, we detected more than a 4-fold increase in activated α-SMA positive RSCs compared to wt con mice (FIG. 33F, G). Db/Db mice treated with AC261066 for 4 weeks had more than a 50% reduction in α-SMA positive RSCs (FIG. 33F, G).
METHODS. Immunofluorescence and Immunostaining Microscopy-Paraffin embedded pancreatic tissue sections were incubated with antibodies against: insulin (mouse monoclonal 1:300, #1061, Beta Cell Biology Consortium), vimentin (rabbit polyclonal 1:500, Santa Cruz), or α-SMA (mouse monoclonal, 1:1000, Dako, Inc).

[5] = tested on: 4-HNE, oxidative stress in the liver; assay: 4-HNE staining of liver, HF-fed mice; conditions: HF diet mice; vs high fat diet group
Description: as §1, §2

[6] = tested on: c-peptide; assay: c-peptide/glucagon immunofluorescence of pancreatic islets, HF-fed mice; conditions: HF diet mice 4 months; vs HF diet
Procedure: Indirect Immunofluorescence. Immunofluorescence assays on cells and tissue sections were performed as previously described (29). Briefly, differentiated samples were fixed using 4% (w/v) paraformaldehyde and membrane permeabilization (for cells only) was done with 0.3% (w/v) Triton-X 100 (Sigma). Unspecific sites were blocked using 2% BSA for 30 min prior to incubation with rabbit polyclonal anti-PDX1 (Millipore, 06-1379, 1:1000), rabbit anti-C-Peptide (Cell Signaling, 4593, 1:500, Danvers, Mass.) and mouse monoclonal anti-Glucagon (Abcam, ab10988, 1:200) primary antibodies. Phalloidin-TRITC (Millipore, FAK100, 1:1000, Billerica, Mass.) was used to stain the actin stress fiber network (F-actin). Nuclei were stained using DAPI contained in Vectashield® mounting medium for fluorescence (Vector labs, Burlingame, Calif.). Quantitation of C-peptide positive stained cells and islet surface area was performed using NIS-Elements Advanced Research software (Nikon).
Mice, diet, and drug treatment. WT male C57/BL6 male mice were maintained on either a standard laboratory chow-fed diet (CFD) with 13% kcal fat, (diet #5053, Lab Diet, Inc, St. Louis, Mo.) or a high fat, western style diet (HFD) with 60% kcals from fat, (diet #58126, Lab Diet, Inc., St. Louis, Mo.) for 4 months. […]

[7] = tested on: PPARα, CPT1-α, CPT2, ACAT1, FASN, SREBP1, ACC1, HSL, PLIN, ADIPOQ mRNA; assay: Q-PCR of lipid metabolism genes in liver, pancreas and adipose tissue; conditions: Wt and Ob/Ob mice, pancreas, adipose
Procedure: RNA Isolation and cDNA Synthesis-Total RNA was isolated from whole pancreas and small intestine homogenates using RNeasy mini kits (Qiagen, Valencia, Calif.) and quantified using a Nano Drop 2000 spectrophotometer (Thermo Scientific, Wilmington, Del.). Total RNA (2 μg) was used to synthesize cDNA with random primers using a qScript cDNA synthesis kit (Quanta Biosciences, Gaithersburg, Md.).
Quantitative RT-PCR (Q-PCR)-Q-PCR was performed using SYBR Green PCR master mix on a Bio-Rad MyiQ2 Real Time PCR iCycler (Bio-Rad, Inc. Hercules, Calif.). Gene specific primers (Table 5) were used to amplify mRNA target genes, which were normalized to Hprt internal control genes. cDNA from 3-5 mice per experimental group was analyzed for relative mRNA fold changes, calculated using the Pfaffl method (Pfaffl M W, A new mathematical model for relative quantification in real-time RT-PCR, Nucleic Acids Res. 2001 May 1; 29(9):e45). Relative gene expression values are reported as mean±standard error of the mean (S.E.M) and P-values calculated using one-way analysis of variance followed by Bonferroni multiple comparison test post-hoc analysis.

CCCCOCCOc1nc(-c2ccc(C(=O)O)c(F)c2)sc1C [AC261066]
α-SMA positive areas in kidney [1]: diminished; also recorded: not observed
4-HNE level (oxidative stress, ROS) in kidneys [2]: reduces oxidative stress; also recorded: lower
serum triglyceride levels [3]: does not increase; also recorded: does not affect
reduction in α-SMA positive RSCs [4]: > 50%
4-HNE level (oxidative stress, ROS) in liver [5]: reduces oxidative stress; also recorded: lower
c-peptide level in pancreatic islets [6]: slightly reduces; also recorded: slightly decreased
tissue expression of genes involved in lipogenesis and mitochondrial oxidation of lipids [7]: alters
